Source: patent US20090068210A1, “IMMUNOTHERAPY FOR HEMATOLOGICAL MALIGNANCIES” (priority 2007, published 2009)

Key:
iNKT cells [1] = assay: Cytokine production (ELISA) by iNKT cells co-cultured with antigen presenting cells (MM1S.CD1d cells or DCs), with or without α-GalCer; assay type: cell-based, human
iNKT cells [2] = assay: as above; assay type: cell-based, human; remark: listed apart in the source
Experimental: 1×10^5 NKT cells from MM patients were plated in a 96-well plate with MM1S.CD1d cells or DCs at ratios of 2:1 and 4:1, respectively, with or without pre-loaded α-GalCer (100 ng/ml). 1-Oxo-2-(2,6-dioxopiperidin-3-yl)-4-aminoisoindoline (2 μM) was used as indicated, with DMSO as control. The supernatant was collected at 48 and 72 hours and the levels of IFN-γ, IL-2 and IL-4 were determined by ELISA (R&D Systems, Minneapolis, Minn.).

[3] = cited from earlier work; for Hygroscopicity: polymorphic form; for Interconversion in solvent systems: interconversion studies
[4] = iNKT cells + MM1S.CD1d cells in the absence of α-GalCer, compound 2 μM, ELISA
[5] = iNKT cells + α-GalCer-loaded MM1S.CD1d cells, compound 2 μM vs controls (DMSO), ELISA

Nc1cccc2c1CN(C1CCC(=O)NC1=O)C2=O (stereo not shown) [1-oxo-2-(2,6-dioxopiperidin-3-yl)-4-aminoisoindoline]
Increase in IFN-γ and IL-2 levels and decrease in IL-4 level (iNKT cells [1]; CD1d-transfected C1R cells as antigen presenting cells): confirmed
Direct stimulation of iNKT cells (iNKT cells [1]; iNKT cells alone or co-cultured with mock MM.1S cells, with or without α-GalCer): did not directly stimulate
IL-4 level (iNKT cells [2]; iNKT cells + CD1d expressing multiple myeloma cells without α-GalCer, compound vs cells alone): decrease
IFN-γ production (iNKT cells [2]; [4]): increase
IL-2 production (iNKT cells [2]; [4]): increase
IFN-γ level (iNKT cells [2]; [5]): significant increase
IL-2 level (iNKT cells [2]; [5]): significant increase
IL-4 level (iNKT cells [2]; [5]): decrease

Nc1cccc2c1CN(C1CCC(=O)NC1=O)C2=O (stereo not shown) [Form A, 3-(4-amino-1-oxo-1,3 dihydro-isoindol-2-yl)-piperidene-2,6-dione]
Relative stability among polymorphs ([3]; Form A: anhydrous polymorphs, Form E: aqueous solvent systems): most thermodynamically stable anhydrous polymorph
Hygroscopicity [3]: weakly or not hygroscopic

Nc1cccc2c1CN(C1CCC(=O)NC1=O)C2=O (stereo not shown) [Form B, 3-(4-amino-1-oxo-1,3 dihydro-isoindol-2-yl)-piperidene-2,6-dione]
Conversion upon heating ([3]; 175° C. for about five minutes): can convert to Form F
Interconversion in solvent systems [3]: converts to Form E in aqueous solvent systems

Nc1cccc2c1CN(C1CCC(=O)NC1=O)C2=O (stereo not shown) [Form C, 3-(4-amino-1-oxo-1,3 dihydro-isoindol-2-yl)-piperidene-2,6-dione]
Hygroscopicity [3]: not hygroscopic below about 85% RH

Nc1cccc2c1CN(C1CCC(=O)NC1=O)C2=O (stereo not shown) [Form D, 3-(4-amino-1-oxo-1,3 dihydro-isoindol-2-yl)-piperidene-2,6-dione]
Hygroscopicity [3]: either weakly or not hygroscopic

Nc1cccc2c1CN(C1CCC(=O)NC1=O)C2=O (stereo not shown) [Form E, 3-(4-amino-1-oxo-1,3 dihydro-isoindol-2-yl)-piperidene-2,6-dione]
Conversion upon heating (desolvation) ([3]; about 125° C. for about five minutes): can convert to Form B
Interconversion in solvent systems [3]: can convert to Form C in an acetone solvent system and to Form G in a THF solvent system
